Reference: PubChem BioAssay (NCI)
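Test compounds were applied to cells in 96-well plates for 48 hours at 5 doses. Here, GI50 denotes the concentration required for 50% inhibition of growth. TGI is the concentration that stops growth completely.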

Assays:
Assay in all cases: NCI anticancer screen, dose series, 48 h
786-0 renal = system: 786-0 renal
HOP-62 NSCLC = system: HOP-62 NSCLC
MALME-3M melanoma = system: MALME-3M melanoma
NCI-H226 lung = system: NCI-H226 lung
NCI-H460 lung = system: NCI-H460 lung
RPMI-8226 leukemia = system: RPMI-8226 leukemia
SF-295 CNS = system: SF-295 CNS
SNB-19 CNS = system: SNB-19 CNS
U251 CNS = system: U251 CNS
MDA-MB-231 breast = system: MDA-MB-231 breast

Row | SMILES | TGI (786-0 renal) | TGI (HOP-62 NSCLC) | TGI (MALME-3M melanoma) | TGI (NCI-H226 lung) | TGI (NCI-H460 lung) | TGI (RPMI-8226 leukemia) | TGI (SF-295 CNS) | TGI (SNB-19 CNS) | TGI (U251 CNS) | GI50 (786-0 renal) | GI50 (HOP-62 NSCLC) | GI50 (MALME-3M melanoma) | GI50 (MDA-MB-231 breast) | TGI (MDA-MB-231 breast) | GI50 (NCI-H460 lung) | GI50 (RPMI-8226 leukemia) | GI50 (SNB-19 CNS) | GI50 (U251 CNS)
1 | O=C1/C=C(/c2ccc(O)cc2)[C@H](O)Cc2ccc(OC3OC(CO)C(O)C(O)C3O)cc2O1 (stereo partly specified) (tested in a mixture with another compound) | > 100 µM | > 100 µM | > 100 µM | > 100 µM | > 100 µM | > 100 µM | > 100 µM | > 100 µM | > 100 µM | – | – | – | – | – | – | – | – | –
2 | Clc1cc(Cl)c2n[se]nc2c1 | > 100 µM | > 100 µM | > 100 µM | – | > 100 µM | > 100 µM | > 100 µM | > 100 µM | > 100 µM | – | – | – | – | – | – | – | – | –
3 | N#CC1(Cc2ccccc2Cl)c2ccccc2C=CN1C(=O)c1ccccc1 (stereo unspecified) | > 100 µM | > 100 µM | > 100 µM | > 100 µM | – | > 100 µM | > 100 µM | > 100 µM | > 100 µM | – | – | – | – | – | – | – | – | –
4 | COc1cc(OC)c(Oc2cccc(OC)c2OC)c(OC)c1 | > 100 µM | > 100 µM | – | > 100 µM | > 100 µM | – | > 100 µM | > 100 µM | > 100 µM | – | – | – | – | – | – | – | – | –
5 | CC(=O)OCC1OC(n2c(-c3ccc(N)cc3)cc(-c3ccco3)c(C#N)c2=O)C(OC(C)=O)C(OC(C)=O)C1OC(C)=O (stereo unspecified) | > 50 µM | > 50 µM | > 50 µM | – | – | – | > 50 µM | > 50 µM | 29.8 µM | – | – | – | – | – | – | – | – | –
6 | O=C(/C=C(\O)C(=O)O)/C=C(\O)c1ccc(Cl)cc1 | > 100 µM | > 100 µM | > 100 µM | > 100 µM | > 100 µM | > 100 µM | > 100 µM | > 100 µM | > 100 µM | – | – | – | – | – | – | – | – | –
7 | O=C(Nc1ccc(Cl)cc1Cl)c1c/c(=N\O)c2ccc(O)cc2o1 | > 100 µM | > 100 µM | > 100 µM | > 100 µM | > 100 µM | > 100 µM | > 100 µM | > 100 µM | > 100 µM | – | – | – | – | – | – | – | – | –
8 | NNC(=S)N/N=C(\c1nc2ccc(Cl)cc2[nH]c1=O)C(O)c1ccc(Cl)cc1Cl (stereo unspecified) | > 100 µM | > 100 µM | > 100 µM | > 100 µM | > 100 µM | > 100 µM | > 100 µM | > 100 µM | > 100 µM | – | – | – | – | – | – | – | – | –
9 | O=C(c1ccc(Cl)cc1)N(C(=S)N1CCN(c2ccccc2)CC1)C1CCCCC1 | > 100 µM | > 100 µM | > 100 µM | 20.8 µM | > 100 µM | > 100 µM | > 100 µM | > 100 µM | > 100 µM | – | – | – | – | – | – | – | – | –
10 | COc1ccc(-c2ccc(/C=N/n3cnn(CN4CCN(C)CC4)c3=S)o2)c([N+](=O)[O-])c1 | > 100 µM | > 100 µM | > 100 µM | – | > 100 µM | 54.2 µM | – | > 100 µM | 65.7 µM | 19.6 µM | 34.1 µM | 36.9 µM | 25.3 µM | 77.1 µM | 35.2 µM | 21.9 µM | 56.4 µM | 23.5 µM
11 | COC(=O)c1nc(N)[nH]c(=O)c1-c1ccc(Cl)cc1 | > 100 µM | > 100 µM | > 100 µM | > 100 µM | > 100 µM | > 100 µM | > 100 µM | > 100 µM | > 100 µM | – | – | – | – | – | – | – | – | –
12 | Cc1ccc(NC(=O)C(=O)C2C(=O)C3=C(CC2(C)C)NC2C=CC=CC2S3)c(C)c1 (stereo unspecified) | > 100 µM | – | – | > 100 µM | > 100 µM | – | > 100 µM | > 100 µM | > 100 µM | – | – | – | – | > 100 µM | – | – | – | –
13 | O=C(CC1Sc2ccccc2NC1=O)Nc1ccc([N+](=O)[O-])cc1[N+](=O)[O-] (stereo unspecified) | 31.7 µM | > 100 µM | 40.6 µM | 42.6 µM | 59.5 µM | 32.3 µM | 34.2 µM | 40.7 µM | 30.3 µM | – | – | – | – | – | – | – | – | –
14 | COc1ccc(-c2cc(-c3ccco3)c(C#N)c(=O)n2C2OC(OC(=O)c3ccccc3)C(OC(=O)c3ccccc3)C2OC(=O)c2ccccc2)cc1 (stereo unspecified) | > 100 µM | > 100 µM | > 100 µM | > 100 µM | > 100 µM | > 100 µM | > 100 µM | > 100 µM | > 100 µM | – | – | – | – | – | – | – | – | –
15 | Nc1nc(Cl)cc2c1ncn2C1OC(CO)C(O)C1O (stereo unspecified) | > 100 µM | > 100 µM | > 100 µM | – | > 100 µM | > 100 µM | – | > 100 µM | > 100 µM | > 100 µM | > 100 µM | > 100 µM | 52.3 µM | > 100 µM | > 100 µM | > 100 µM | > 100 µM | > 100 µM
16 | COC1=C(C(=O)OC(C)(C)C)C23CCCCC2(C(C(=O)OC(C)(C)C)=C(OC)C3C(=O)OC(C)(C)C)C1C(=O)OC(C)(C)C (stereo unspecified) | > 100 µM | > 100 µM | > 100 µM | > 100 µM | > 100 µM | > 100 µM | > 100 µM | > 100 µM | > 100 µM | – | – | – | – | – | – | – | – | –
17 | Cn1c(=O)c(C2c3ccccc3Oc3c2c(=O)n(C)c2ccccc32)c(O)c2ccccc21 (stereo unspecified) | > 100 µM | > 100 µM | > 100 µM | > 100 µM | > 100 µM | > 100 µM | > 100 µM | > 100 µM | > 100 µM | – | – | – | – | – | – | – | – | –
18 | O=c1c2ccccc2oc2nccnc12 | > 100 µM | > 100 µM | > 100 µM | – | > 100 µM | > 100 µM | > 100 µM | > 100 µM | > 100 µM | – | – | – | – | – | – | – | – | –
19 | Cc1cc(C)cc(NC(=O)CCC(=O)C2CCC/C2=N\NC(=O)C(=O)NN)c1 (stereo unspecified) | > 100 µM | – | > 100 µM | > 100 µM | > 100 µM | > 100 µM | > 100 µM | > 100 µM | > 100 µM | – | – | – | – | – | – | – | – | –
20 | COC(=O)C(=O)C(C(=O)C(=O)Nc1ccc(Cl)cc1Cl)c1nc2ccc(Cl)cc2[nH]c1=O (stereo unspecified) | > 100 µM | > 100 µM | – | > 100 µM | > 100 µM | – | > 100 µM | > 100 µM | > 100 µM | – | – | – | – | > 100 µM | – | – | – | –
21 | CC(C)CCC[C@@H](C)C1CCC2[C@@H]3CC=C4C[C@@H](OC(=O)CCC(=O)NCC[N+](C)(C)CCCS(=O)(=O)[O-])CC[C@]4(C)C3CC[C@@]21C (stereo partly specified) | 67.9 µM | 33.9 µM | 43.7 µM | 50.5 µM | 30.9 µM | 45.9 µM | 31.6 µM | 44.7 µM | 33.9 µM | – | – | – | – | – | – | – | – | –
